In paper PMC5137954, “Importance of measuring testosterone in enzyme-inhibited plasma for oral testosterone undecanoate androgen replacement therapy clinical trials” (Future Science OA, 2015):

Legend:
[1] = Stability of T and DHT in NaF/Na2EDTA plasma in presence of TU, DHTU and glucuronides (method validation); details: for increase of the T and DHT concentrations (degradation of TU and DHTU into T or DHT): low and high QCs, room temperature or 4°C, long-term storage at -20 and -80°C; for % Bias of dihydrotestosterone concentration / % Bias of testosterone concentration: DHTU and glucuronides
Experimental: The methods were validated as per the most recent US FDA and EMA validation guidelines. During the method validation, the accuracy, precision, within-run, between-run, selectivity, matrix effect as well as the stability (stability in whole blood at 4°C, short-term stability in matrix at room temperature, freeze–thaw stability at -20°C/-80°C, long-term stability at -20°C/-80°C) were evaluated.
The impact of the glucuronide was also assessed in whole blood during sample collection and handling.
Moreover, the possible degradation of TU and DHTU into T or DHT was assessed when low and high T and DHT level quality controls were submitted to freeze–thaw cycles, incubation at room temperature or 4°C and long-term storage at -20 and -80°C.
Low QC samples were fortified with testosterone undecanoate (3000 ng/dL), dihydrotestosterone undecanoate (1500 ng/dL), testosterone glucuronide (800 ng/dL) and dihydrotestosterone undecanoate (400 ng/dL). High QC samples were fortified with testosterone undecanoate (219000 ng/dL), dihydrotestosterone undecanoate (235100 ng/dL), testosterone glucuronide (93600 ng/dL) and dihydrotestosterone undecanoate (21900 ng/dL). The%Bias must be within 15%.

[2] = Clinical study of oral TU: T and DHT in serum versus NaF/Na2 EDTA plasma; details: day 84, oral TU twice daily, fed, 15 hypogonadal men; serum vs NaF-Na2 EDTA plasma
Experimental: A clinical study was performed at the inVentiv Health Clinical facilities where fifteen asymptomatic hypogonadal male subjects aged 18 to 75 years were administered an oral dose of TU twice daily for 84 consecutive days under fed conditions. Each volunteer was informed on the risk of procedure and risk of the clinical study by signing the informed consent. On day 84, serum and plasma samples were collected predose and at 1.5, 3, 4, 5, 6, 8, 10, 12, 13.5, 15, 16, 17, 18, 20, 22 and 24 h after the morning dose. One of the main objectives of this study part was to compare the levels of T and DHT measured with a validated method in NaF/Na2 EDTA plasma to the levels measured in serum.
Pharmacokinetic (PK) parameters were assessed using samples collected on day 84: Ln-transformed area under the concentration–time curve (AUC0–24) and the maximum concentration of analyte (Cmax0–24) obtained with the study samples collected from 0–24 h after the morning dose of TU on last study day 84 were used to compare the levels of testosterone, DHT, TU and DHTU measured in serum in comparison to the levels measured in plasma.
Data reported in Table 5 were obtained from a cohort of 15 subjects undergoing a clinical study of a novel formulation of TU. Table 5 presents summaries of the comparison of the PK results for T and DHT obtained using serum and plasma samples for each analyte. Figure 2 presents the mean analyte concentrations obtained from the serum and plasma samples.

[3] = conclusion of a published method validation; cited from earlier work
[4] = in serum or plasma, sometimes; cited from earlier work
[5] = TU to T conversion depending on the TU spiking solvent used; assay type: in vitro ADME, human
Experimental: We decided to investigate further to better understand the discordance between the conclusions. Literature descriptions of sample preparations include a stock solution prepared in ethanol and diluted in phosphate buffer saline (PBS). In the experiments carried out in the study reported here, it was observed that the stock and spiking solution preparation is very important. A stock solution of TU was prepared in ethanol and diluted with PBS prior to being added to whole blood. Results from this procedure were compared with those typically used in our experiments with TU stock prepared and diluted using methanol, prior to being added to whole blood. It was observed that a precipitate occurred in the PBS solution after a freeze–thaw cycle.
To investigate this effect further, freshly collected whole blood was collected in conventional serum tubes and in NaF/K2C2O4 tubes. Each whole blood tube was fortified with TU at a final concentration of 60,000 ng/dl with solution prepared either in methanol or in ethanol/PBS; each experiment was performed in triplicate. Serum samples were incubated at room temperature for 30 and 60 min, and plasma samples were incubated for 10, 30 and 60 min at 4°C. T and TU were analyzed in the plasma and serum samples obtained.

CCCCCCCCCCC(=O)O[C@H]1CCC2C3CCC4CC(=O)CC[C@]4(C)C3CC[C@@]21C (stereo partly drawn) [DHTU, 5-alpha-dihydrotestosterone undecanoate]
increase of the T and DHT concentrations (degradation of TU and DHTU into T or DHT) ([1]; freeze–thaw cycles): No increase

C[C@]12CC[C@H]3[C@@H](CCC4=CC(=O)CC[C@@]43C)[C@@H]1CC[C@@H]2O[C@@H]1O[C@H](C(=O)O)[C@@H](O)[C@H](O)[C@H]1O [Testosterone glucuronide, testosterone glucuronide]
impact on the quantitation of T and DHT ([1]; low and high QCs fortified with testosterone glucuronide, freeze–thaw cycles, room temperature, 4°C, long-term storage at -20 or -80°C): no impact

C[C@]12CCC(=O)C[C@@H]1CC[C@@H]1[C@@H]2CC[C@]2(C)[C@@H](O)CC[C@@H]12 [Dihydrotestosterone, dihydrotestosterone]
Ratio (serum/plasma) of AUC0–24 [2]: 122.40% | Ratio (serum/plasma) of Cmax0–24 [2]: 130.61% | % Bias of dihydrotestosterone concentration ([1]; High QC 430.0 ng/dL fortified with TU, Freeze/Thaw at -20°C (4 Cycles)): -10.2% | % Bias of dihydrotestosterone concentration ([1]; High QC 430.0 ng/dL fortified with TU, Freeze/Thaw at -80°C (4 Cycles)): -10.7% | % Bias of dihydrotestosterone concentration ([1]; High QC 430.0 ng/dL fortified with TU, Long-Term at -20°C for 14 days): -4.4% | % Bias of dihydrotestosterone concentration ([1]; High QC 430.0 ng/dL fortified with TU, Long-Term at -80°C for 14 days): -5.4% | % Bias of dihydrotestosterone concentration ([1]; High QC 430.0 ng/dL fortified with TU, Post-Preparative at RT for 69 hrs): 8.6% | % Bias of dihydrotestosterone concentration ([1]; High QC 430.0 ng/dL fortified with TU, Short-Term at 4°C for 21 hrs): -0.5% | % Bias of dihydrotestosterone concentration ([1]; High QC 430.0 ng/dL fortified with TU, Short-Term at RT for 23 hrs): 2.5% | % Bias of dihydrotestosterone concentration ([1]; High QC 430.0 ng/dL fortified with TU, Whole Blood on Ice for 110 min): 0.3% | % Bias of dihydrotestosterone concentration ([1]; Low QC 19.2 ng/dL fortified with TU, Freeze/Thaw at -20°C (4 Cycles)): -14.6% | % Bias of dihydrotestosterone concentration ([1]; Low QC 19.2 ng/dL fortified with TU, Freeze/Thaw at -80°C (4 Cycles)): -14.9% | % Bias of dihydrotestosterone concentration ([1]; Low QC 19.2 ng/dL fortified with TU, Long-Term at -20°C for 14 days): -8.7% | % Bias of dihydrotestosterone concentration ([1]; Low QC 19.2 ng/dL fortified with TU, Long-Term at -80°C for 14 days): -8.1% | % Bias of dihydrotestosterone concentration ([1]; Low QC 19.2 ng/dL fortified with TU, Post-Preparative at RT for 69 hrs): 5.1% | % Bias of dihydrotestosterone concentration ([1]; Low QC 19.2 ng/dL fortified with TU, Short-Term at 4°C for 21 hrs): -9.1% | % Bias of dihydrotestosterone concentration ([1]; Low QC 19.2 ng/dL fortified with TU, Short-Term at RT for 23 hrs): -6.1% | % Bias of dihydrotestosterone concentration ([1]; Low QC 19.2 ng/dL fortified with TU, Whole Blood on Ice for 110 min): -6.1%

C[C@]12CC[C@H]3[C@@H](CCC4=CC(=O)CC[C@@]43C)[C@@H]1CC[C@@H]2O [Testosterone, testosterone]
Ratio (serum/plasma) of AUC0–24 [2]: 130.02% | Ratio (serum/plasma) of Cmax0–24 [2]: 134.01% | % Bias of testosterone concentration ([1]; High QC 2300.0 ng/dL fortified with TU, Freeze/Thaw at -20°C (4 Cycles)): -3.3% | % Bias of testosterone concentration ([1]; High QC 2300.0 ng/dL fortified with TU, Freeze/Thaw at -80°C (4 Cycles)): -3.4% | % Bias of testosterone concentration ([1]; High QC 2300.0 ng/dL fortified with TU, Long-Term at -20°C for 14 days): -1.8% | % Bias of testosterone concentration ([1]; High QC 2300.0 ng/dL fortified with TU, Long-Term at -80°C for 14 days): -3.1% | % Bias of testosterone concentration ([1]; High QC 2300.0 ng/dL fortified with TU, Post-Preparative at RT for 69 hrs): 10.1% | % Bias of testosterone concentration ([1]; High QC 2300.0 ng/dL fortified with TU, Short-Term at 4°C for 21 hrs): 0.6% | % Bias of testosterone concentration ([1]; High QC 2300.0 ng/dL fortified with TU, Short-Term at RmT for 23 hrs): 0.2% | % Bias of testosterone concentration ([1]; High QC 2300.0 ng/dL fortified with TU, Whole Blood on ice for 110 min): 8.3% | % Bias of testosterone concentration ([1]; Low QC 40.0 ng/dL fortified with TU, Freeze/Thaw at -20°C (4 Cycles)): -5.8% | % Bias of testosterone concentration ([1]; Low QC 40.0 ng/dL fortified with TU, Freeze/Thaw at -80°C (4 Cycles)): -5.8% | % Bias of testosterone concentration ([1]; Low QC 40.0 ng/dL fortified with TU, Long-Term at -20°C for 14 days): -1.9% | % Bias of testosterone concentration ([1]; Low QC 40.0 ng/dL fortified with TU, Long-Term at -80°C for 14 days): 2.1% | % Bias of testosterone concentration ([1]; Low QC 40.0 ng/dL fortified with TU, Post-Preparative at RT for 69 hrs): 14.0% | % Bias of testosterone concentration ([1]; Low QC 40.0 ng/dL fortified with TU, Short-Term at 4°C for 21 hrs): -4.2% | % Bias of testosterone concentration ([1]; Low QC 40.0 ng/dL fortified with TU, Short-Term at RmT for 23 hrs): -2.5% | % Bias of testosterone concentration ([1]; Low QC 40.0 ng/dL fortified with TU, Whole Blood on ice for 110 min): -11.1%

CCCCCCCCCCC(=O)O[C@H]1CCC2C3CCC4=CC(=O)CC[C@]4(C)C3CC[C@@]21C (stereo partly drawn) [TU, Testosterone undecanoate]
increase of the T and DHT concentrations (degradation of TU and DHTU into T or DHT) ([1]; freeze–thaw cycles): No increase | stability of TU in blood [3]: stable | TU concentration higher than the testosterone concentration [4]: 20- to 30 times | Mean TU Concentration ([5]; whole blood spiked with TU in PBS, 60,000 ng/dl, 30 min serum RT): 3991.0 ng/dL | Mean TU Concentration ([5]; whole blood spiked with TU in PBS, 60,000 ng/dl, 60 min serum RT): 5892.3 ng/dL | Mean TU Concentration ([5]; whole blood spiked with TU in PBS, 60,000 ng/dl, NaF/K2C2O4 plasma 10 min 4°C): 74408.7 ng/dL | Mean TU Concentration ([5]; whole blood spiked with TU in PBS, 60,000 ng/dl, NaF/K2C2O4 plasma 30 min 4°C): 54088.0 ng/dL | Mean TU Concentration ([5]; whole blood spiked with TU in PBS, 60,000 ng/dl, NaF/K2C2O4 plasma 60 min 4°C): 26618.7 ng/dL | Mean TU Concentration ([5]; whole blood spiked with TU in methanol, 60,000 ng/dl, 30 min serum RT): 97110.3 ng/dL | Mean TU Concentration ([5]; whole blood spiked with TU in methanol, 60,000 ng/dl, 60 min serum RT): 96132.3 ng/dL | Mean TU Concentration ([5]; whole blood spiked with TU in methanol, 60,000 ng/dl, NaF/K2C2O4 plasma 10 min 4°C): 97235.0 ng/dL | Mean TU Concentration ([5]; whole blood spiked with TU in methanol, 60,000 ng/dl, NaF/K2C2O4 plasma 30 min 4°C): 95628.0 ng/dL | Mean TU Concentration ([5]; whole blood spiked with TU in methanol, 60,000 ng/dl, NaF/K2C2O4 plasma 60 min 4°C): 93816.3 ng/dL
